Data published in BigSolDB 2.1.

CN1C(C(=O)Nc2ccccn2)=C(O)c2sc(Cl)cc2S1(=O)=O
solubility (mole fraction) (in PEG-400, 298.15 K): 0.00855 | solubility (mole fraction) (in PEG-400, 303.15 K): 0.0101 | solubility (mole fraction) (in PEG-400, 308.15 K): 0.0114 | solubility (mole fraction) (in PEG-400, 313.15 K): 0.0129 | solubility (mole fraction) (in PEG-400, 323.15 K): 0.0169 | solubility (mole fraction) (in ethanol, 298.15 K): 8.43e-06 | solubility (mole fraction) (in ethanol, 303.15 K): 1.16e-05 | solubility (mole fraction) (in ethanol, 308.15 K): 1.45e-05 | solubility (mole fraction) (in ethanol, 313.15 K): 1.98e-05 | solubility (mole fraction) (in ethanol, 323.15 K): 3.22e-05 | solubility (mole fraction) (in ethyl acetate, 298.15 K): 8.39e-05 | solubility (mole fraction) (in ethyl acetate, 303.15 K): 9.08e-05 | solubility (mole fraction) (in ethyl acetate, 308.15 K): 9.86e-05 | solubility (mole fraction) (in ethyl acetate, 313.15 K): 0.000107 | solubility (mole fraction) (in ethyl acetate, 323.15 K): 0.000121 | solubility (mole fraction) (in ethylene glycol, 298.15 K): 0.000224 | solubility (mole fraction) (in ethylene glycol, 303.15 K): 0.000334 | solubility (mole fraction) (in ethylene glycol, 308.15 K): 0.000474 | solubility (mole fraction) (in ethylene glycol, 313.15 K): 0.000634 | solubility (mole fraction) (in ethylene glycol, 323.15 K): 0.00108 | solubility (mole fraction) (in isopropanol, 298.15 K): 9.05e-06 | solubility (mole fraction) (in isopropanol, 303.15 K): 1.16e-05 | solubility (mole fraction) (in isopropanol, 308.15 K): 1.45e-05 | solubility (mole fraction) (in isopropanol, 313.15 K): 1.81e-05 | solubility (mole fraction) (in isopropanol, 323.15 K): 2.67e-05 | solubility (mole fraction) (in n-butanol, 298.15 K): 1.36e-05 | solubility (mole fraction) (in n-butanol, 303.15 K): 1.55e-05 | solubility (mole fraction) (in n-butanol, 308.15 K): 1.75e-05 | solubility (mole fraction) (in n-butanol, 313.15 K): 1.99e-05 | solubility (mole fraction) (in n-butanol, 323.15 K): 2.39e-05 | solubility (mole fraction) (in propylene glycol, 298.15 K): 3.17e-05 | solubility (mole fraction) (in propylene glycol, 303.15 K): 3.6e-05 | solubility (mole fraction) (in propylene glycol, 308.15 K): 4.05e-05 | solubility (mole fraction) (in propylene glycol, 313.15 K): 4.5e-05 | solubility (mole fraction) (in propylene glycol, 323.15 K): 5.4e-05 | solubility (mole fraction) (in sec-butanol, 298.15 K): 2.99e-05 | solubility (mole fraction) (in sec-butanol, 303.15 K): 3.59e-05 | solubility (mole fraction) (in sec-butanol, 308.15 K): 4.19e-05 | solubility (mole fraction) (in sec-butanol, 313.15 K): 4.78e-05 | solubility (mole fraction) (in sec-butanol, 323.15 K): 6.58e-05 | solubility (mole fraction) (in transcutol, 298.15 K): 0.000317 | solubility (mole fraction) (in transcutol, 303.15 K): 0.000382 | solubility (mole fraction) (in transcutol, 308.15 K): 0.000462 | solubility (mole fraction) (in transcutol, 313.15 K): 0.000552 | solubility (mole fraction) (in transcutol, 323.15 K): 0.000743 | solubility (mole fraction) (in water, 298.15 K): 2.91e-06 | solubility (mole fraction) (in water, 303.15 K): 4.12e-06 | solubility (mole fraction) (in water, 308.15 K): 5.52e-06 | solubility (mole fraction) (in water, 313.15 K): 7.27e-06 | solubility (mole fraction) (in water, 323.15 K): 1.19e-05
